The target of this assay is E. coli PheRS (Escherichia coli, UniProt P08312). Description: inhibition of Phe activation by purified PheRS. Format: biochemical.
Chain of E. coli PheRS (P08312 whole entry): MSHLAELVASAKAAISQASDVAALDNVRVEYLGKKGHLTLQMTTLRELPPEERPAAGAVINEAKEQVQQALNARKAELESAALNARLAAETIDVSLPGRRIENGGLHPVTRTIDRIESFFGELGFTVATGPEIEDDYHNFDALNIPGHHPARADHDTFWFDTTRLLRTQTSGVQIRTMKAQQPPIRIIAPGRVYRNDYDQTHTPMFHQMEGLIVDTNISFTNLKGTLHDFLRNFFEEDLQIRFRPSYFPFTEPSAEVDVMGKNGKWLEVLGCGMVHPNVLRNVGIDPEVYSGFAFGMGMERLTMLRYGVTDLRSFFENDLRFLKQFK
Chain of E. coli PheRS (P07395 whole entry partner): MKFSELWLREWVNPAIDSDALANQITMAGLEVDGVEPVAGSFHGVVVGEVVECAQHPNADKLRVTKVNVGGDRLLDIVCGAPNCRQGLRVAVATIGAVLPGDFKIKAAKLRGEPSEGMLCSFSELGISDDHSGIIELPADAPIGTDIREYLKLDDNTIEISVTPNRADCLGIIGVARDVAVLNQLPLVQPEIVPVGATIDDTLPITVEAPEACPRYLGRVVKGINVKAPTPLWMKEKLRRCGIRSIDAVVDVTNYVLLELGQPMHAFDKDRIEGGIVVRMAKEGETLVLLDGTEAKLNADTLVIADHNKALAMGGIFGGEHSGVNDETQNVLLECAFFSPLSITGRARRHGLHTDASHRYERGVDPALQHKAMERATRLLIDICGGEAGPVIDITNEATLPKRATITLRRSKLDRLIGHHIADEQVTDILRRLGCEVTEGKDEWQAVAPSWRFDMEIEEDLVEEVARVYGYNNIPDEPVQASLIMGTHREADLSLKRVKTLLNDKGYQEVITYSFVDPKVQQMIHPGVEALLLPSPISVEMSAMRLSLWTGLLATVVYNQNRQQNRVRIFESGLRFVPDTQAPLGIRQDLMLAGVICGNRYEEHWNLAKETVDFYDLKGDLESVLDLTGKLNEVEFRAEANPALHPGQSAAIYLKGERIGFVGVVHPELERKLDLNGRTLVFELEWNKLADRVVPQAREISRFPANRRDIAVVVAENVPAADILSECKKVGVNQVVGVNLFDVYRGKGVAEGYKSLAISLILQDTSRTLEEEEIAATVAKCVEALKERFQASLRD

Turning to `CC(Cc1ccccc1)NCc1ccccc1` (stereo not shown) [compound 20, norbenzamphetamine], the IC50 is 169 µM.

For the origin of these results see paper PMC7853427 (Journal of the American Chemical Society, 2021).
